Measured values as given in publication PMC5218480 (PLoS ONE, 2017).

Test system: MV-4-11 cells
Test: Gene expression microarray analysis (Affymetrix PrimeView) and GSEA
Assay type: cell-based, human
Design: RFU PODN (11730768_x_at) / Fold change /veh PODN (11730768_x_at) / RFU LINC00158 (11744669_a_at) / Fold change /veh LINC00158 (11744669_a_at) / RFU DUSP10 (11751237_a_at) / Fold change /veh DUSP10 (11751237_a_at) / RFU ID3 (11757404_x_at) / Fold change /veh ID3 (11757404_x_at) / RFU PLEKHG5 (11737974_s_at) / Fold change /veh PLEKHG5 (11737974_s_at) / RFU LRRC4B (11730491_at) / Fold change /veh LRRC4B (11730491_at) / RFU GIMAP4 (11747438_a_at) / Fold change /veh GIMAP4 (11747438_a_at) / RFU KRT8 (11758183_x_at) / Fold change /veh KRT8 (11758183_x_at) / RFU CNN1 (11734310_a_at) / Fold change /veh CNN1 (11734310_a_at) / RFU VPS37D (11726825_at) / Fold change /veh VPS37D (11726825_at) / RFU C10orf10 (11716522_x_at) / Fold change /veh C10orf10 (11716522_x_at) / RFU KIR2DL2 /// KIR2DL4 /// KIR2DL5A /// KIR2DL5B /// KIR2DS1 /// KIR2DS2 /// KIR2DS3 /// KIR2DS4 /// KIR3DL3 /// KIR3DL3 /// KIR3DS1 (11738374_at) / Fold change /veh KIR2DL2 /// KIR2DL4 /// KIR2DL5A /// KIR2DL5B /// KIR2DS1 /// KIR2DS2 /// KIR2DS3 /// KIR2DS4 /// KIR3DL3 /// KIR3DL3 /// KIR3DS1 (11738374_at) / RFU C1QL1 (11718748_at) / Fold change /veh C1QL1 (11718748_at) / RFU TMPRSS4 (11747572_a_at) / Fold change /veh TMPRSS4 (11747572_a_at) / RFU HAMP (11756126_x_at) / Fold change /veh HAMP (11756126_x_at) / RFU RNFT2 (11725882_a_at) / Fold change /veh RNFT2 (11725882_a_at) / RFU NR4A2 (11747474_a_at) / Fold change /veh NR4A2 (11747474_a_at) / RFU ABCC12 (11746883_a_at) / Fold change /veh ABCC12 (11746883_a_at) / RFU TMEM136 (11760407_x_at) / Fold change /veh TMEM136 (11760407_x_at) / RFU CLDN22 /// WWC2 (11732394_at) / Fold change /veh CLDN22 /// WWC2 (11732394_at) / RFU HLA-DPB1 (11760878_x_at) / Fold change /veh HLA-DPB1 (11760878_x_at) / RFU SPINT1 (11716480_a_at) / Fold change /veh SPINT1 (11716480_a_at) / RFU GAP43 (11754022_s_at) / Fold change /veh GAP43 (11754022_s_at) / RFU A4GNT (11735810_at) / Fold change /veh A4GNT (11735810_at) / RFU PRB3 (11715151_x_at) / Fold change /veh PRB3 (11715151_x_at) / RFU TUBB4B (11761932_at) / Fold change /veh TUBB4B (11761932_at) / RFU CAPN14 (11732068_a_at) / Fold change /veh CAPN14 (11732068_a_at) / RFU TMCC2 (11721928_a_at) / Fold change /veh TMCC2 (11721928_a_at) / RFU IRGQ (11745062_a_at) / Fold change /veh IRGQ (11745062_a_at) / RFU FAM174B (11720279_a_at) / Fold change /veh FAM174B (11720279_a_at) / RFU TMPRSS4 (11748680_a_at) / Fold change /veh TMPRSS4 (11748680_a_at) / RFU FAM212B (11763350_a_at) / Fold change /veh FAM212B (11763350_a_at) / RFU PLEKHG5 (11743358_a_at) / Fold change /veh PLEKHG5 (11743358_a_at) / RFU ZSCAN30 (11745921_a_at) / Fold change /veh ZSCAN30 (11745921_a_at) / RFU CMKLR1 (11741424_a_at) / Fold change /veh CMKLR1 (11741424_a_at) / RFU LOC101060620 /// MAPK8IP1 (11723275_at) / Fold change /veh LOC101060620 /// MAPK8IP1 (11723275_at) / RFU SPTSSB (11747773_x_at) / Fold change /veh SPTSSB (11747773_x_at) / RFU PRSS12 (11739890_at) / Fold change /veh PRSS12 (11739890_at) / RFU BIN1 (11741810_x_at) / Fold change /veh BIN1 (11741810_x_at) / RFU WNT11 (11732464_a_at) / Fold change /veh WNT11 (11732464_a_at) / RFU C10orf10 (11716521_a_at) / Fold change /veh C10orf10 (11716521_a_at) / RFU C5orf56 (11738089_at) / Fold change /veh C5orf56 (11738089_at) / RFU CYB561 (11721691_x_at) / Fold change /veh CYB561 (11721691_x_at) / RFU ANKRD19P (11752326_a_at) / Fold change /veh ANKRD19P (11752326_a_at) / RFU OR2T12 /// OR2T33 /// OR2T8 (11738714_s_at) / Fold change /veh OR2T12 /// OR2T33 /// OR2T8 (11738714_s_at) / RFU VCAN (11748164_a_at) / Fold change /veh VCAN (11748164_a_at) / RFU JSRP1 (11732532_at) / Fold change /veh JSRP1 (11732532_at) / RFU KRTAP10-11 (11738290_x_at) / Fold change /veh KRTAP10-11 (11738290_x_at) / RFU MYO3A (11730013_a_at) / Fold change /veh MYO3A (11730013_a_at) / RFU EBF3 (11725865_a_at) / Fold change /veh EBF3 (11725865_a_at) / RFU CAMK2N1 (11719241_x_at) / Fold change /veh CAMK2N1 (11719241_x_at) / RFU C5orf56 (11738088_a_at) / Fold change /veh C5orf56 (11738088_a_at) / RFU OLFML3 (11715873_a_at) / Fold change /veh OLFML3 (11715873_a_at) / RFU LOC100653217 /// NTM (11731650_a_at) / Fold change /veh LOC100653217 /// NTM (11731650_a_at) / RFU MAPK11 (11762145_a_at) / Fold change /veh MAPK11 (11762145_a_at) / RFU FIZ1 (11724087_x_at) / Fold change /veh FIZ1 (11724087_x_at) / RFU OASL (11726364_x_at) / Fold change /veh OASL (11726364_x_at) / RFU SOX15 (11748057_x_at) / Fold change /veh SOX15 (11748057_x_at) / RFU CD79A (11719716_a_at) / Fold change /veh CD79A (11719716_a_at) / RFU HIST1H1D (11736915_at) / Fold change /veh HIST1H1D (11736915_at) / RFU CASKIN2 (11723855_a_at) / Fold change /veh CASKIN2 (11723855_a_at) / RFU LOC730098 (11760151_x_at) / Fold change /veh LOC730098 (11760151_x_at) / RFU OR4N2 (11742367_at) / Fold change /veh OR4N2 (11742367_at) / RFU PRRT2 (11749266_a_at) / Fold change /veh PRRT2 (11749266_a_at) / RFU SNX32 (11753110_a_at) / Fold change /veh SNX32 (11753110_a_at) / RFU CDHR5 (11726645_a_at) / Fold change /veh CDHR5 (11726645_a_at) / RFU RCAN1 (11760418_a_at) / Fold change /veh RCAN1 (11760418_a_at) / RFU FAM167A (11723789_a_at) / Fold change /veh FAM167A (11723789_a_at) / RFU FAM26E (11764081_at) / Fold change /veh FAM26E (11764081_at) / RFU ISYNA1 (11749810_s_at) / Fold change /veh ISYNA1 (11749810_s_at) / RFU ACY1 (11761880_at) / Fold change /veh ACY1 (11761880_at) / RFU 11764098_at / Fold change /veh 11764098_at / RFU SAMD14 (11745864_x_at) / Fold change /veh SAMD14 (11745864_x_at) / RFU NPB (11741838_a_at) / Fold change /veh NPB (11741838_a_at) / RFU TMPRSS6 (11731388_a_at) / Fold change /veh TMPRSS6 (11731388_a_at) / RFU KRTAP10-2 (11738614_at) / Fold change /veh KRTAP10-2 (11738614_at) / RFU ARHGAP8 /// PRR5-ARHGAP8 (11727945_x_at) / Fold change /veh ARHGAP8 /// PRR5-ARHGAP8 (11727945_x_at) / RFU KRTAP5-7 /// NADSYN1 (11734609_at) / Fold change /veh KRTAP5-7 /// NADSYN1 (11734609_at) / RFU RASL12 (11751679_a_at) / Fold change /veh RASL12 (11751679_a_at) / RFU CDKN2B (11736163_a_at) / Fold change /veh CDKN2B (11736163_a_at) / RFU PRF1 (11729649_at) / Fold change /veh PRF1 (11729649_at) / RFU, ZNF638 /// ZNF638-IT1 / Fold change vs veh, ZNF638 /// ZNF638-IT1 / RFU, PANK3 / Fold change vs veh, PANK3 / RFU, SH3YL1 / Fold change vs veh, SH3YL1 / RFU, ZEB2 / Fold change vs veh, ZEB2 / RFU, NRIP1 / Fold change vs veh, NRIP1 / RFU, PTTG1IP / Fold change vs veh, PTTG1IP / RFU, CAPN2 / Fold change vs veh, CAPN2 / RFU, MED14 / Fold change vs veh, MED14 / RFU, SNORA58 / Fold change vs veh, SNORA58 / RFU, C1orf63 / Fold change vs veh, C1orf63 / RFU, LRRFIP1 / Fold change vs veh, LRRFIP1 / RFU, NDUFAF7 / Fold change vs veh, NDUFAF7 / RFU, SLC12A2 / Fold change vs veh, SLC12A2 / RFU, IBTK / Fold change vs veh, IBTK / RFU, ESF1 / Fold change vs veh, ESF1 / Fold change vs veh, TMEM50B / RFU, TAOK1 / Fold change vs veh, TAOK1 / RFU, ACBD3 / Fold change vs veh, ACBD3 / RFU, TMA16 / Fold change vs veh, TMA16 / RFU, RWDD3 / Fold change vs veh, RWDD3 / RFU, BCAT1 / Fold change vs veh, BCAT1 / RFU, EDEM3 / Fold change vs veh, EDEM3 / RFU, TMEM33 / Fold change vs veh, TMEM33 / RFU, WDR75 / Fold change vs veh, WDR75 / RFU, AHCTF1 / Fold change vs veh, AHCTF1 / RFU, TFRC / Fold change vs veh, TFRC / RFU, ZDHHC17 / Fold change vs veh, ZDHHC17 / RFU, NOM1 / Fold change vs veh, NOM1 / RFU, ARL8B / Fold change vs veh, ARL8B / RFU, ZBTB11 / Fold change vs veh, ZBTB11 / RFU, TAMM41 / Fold change vs veh, TAMM41 / RFU, KIAA1704 /// LOC100996395 / Fold change vs veh, KIAA1704 /// LOC100996395 / RFU, ING1 / Fold change vs veh, ING1 / RFU, TRMT61B / Fold change vs veh, TRMT61B / RFU, FUBP3 / Fold change vs veh, FUBP3 / RFU, TP53 / Fold change vs veh, TP53 / RFU, TNKS2 / Fold change vs veh, TNKS2 / RFU, ZFP14 / Fold change vs veh, ZFP14 / RFU, ACTR2 / Fold change vs veh, ACTR2 / RFU, PPP3R1 / Fold change vs veh, PPP3R1 / RFU, PIK3R1 / Fold change vs veh, PIK3R1 / RFU, HNRNPA1 / Fold change vs veh, HNRNPA1 / RFU, RNF170 / Fold change vs veh, RNF170 / RFU, ZNF28 / Fold change vs veh, ZNF28 / RFU, RNGTT / Fold change vs veh, RNGTT / RFU, OGT / Fold change vs veh, OGT / RFU, BRD1 / Fold change vs veh, BRD1 / RFU, MARS / Fold change vs veh, MARS / RFU, ZNF655 / Fold change vs veh, ZNF655 / RFU, FAHD1 / Fold change vs veh, FAHD1 / RFU, BDP1 / Fold change vs veh, BDP1 / RFU, LRRCC1 / Fold change vs veh, LRRCC1 / RFU, ARID1A / Fold change vs veh, ARID1A / RFU, ZNF146 / Fold change vs veh, ZNF146 / RFU, ZNF330 / Fold change vs veh, ZNF330 / RFU, GPN3 / Fold change vs veh, GPN3 / RFU, C9orf123 / Fold change vs veh, C9orf123 / RFU, N4BP2L2 / Fold change vs veh, N4BP2L2 / RFU, ARFIP1 / Fold change vs veh, ARFIP1 / RFU, FAM179B / Fold change vs veh, FAM179B / RFU, BCL10 / Fold change vs veh, BCL10 / RFU, UHRF1BP1L / Fold change vs veh, UHRF1BP1L / RFU, BET1 / Fold change vs veh, BET1 / RFU, CNOT2 / Fold change vs veh, CNOT2 / RFU, ZNF268 / Fold change vs veh, ZNF268 / Fold change vs veh, ZNF507 / RFU, DGCR2 / Fold change vs veh, DGCR2 / RFU, WDSUB1 / Fold change vs veh, WDSUB1 / Fold change vs veh, HSP90B1 /// MIR3652 / RFU, ADSS / Fold change vs veh, ADSS / RFU, GK / Fold change vs veh, GK / RFU, ZNF148 / Fold change vs veh, ZNF148 / RFU, TAF9 / Fold change vs veh, TAF9 / RFU, SLC1A5 / Fold change vs veh, SLC1A5 / RFU, SLMO2 / Fold change vs veh, SLMO2 / RFU, ABCC4 / Fold change vs veh, ABCC4 / RFU, LOC101060439 /// RAP1B / Fold change vs veh, LOC101060439 /// RAP1B / RFU, RFX7 / Fold change vs veh, RFX7 / RFU, GTPBP10 / Fold change vs veh, GTPBP10 / RFU, CNEP1R1 / Fold change vs veh, CNEP1R1 / RFU, BIVM-ERCC5 /// ERCC5 / Fold change vs veh, BIVM-ERCC5 /// ERCC5 / RFU, ILF3 / Fold change vs veh, ILF3 / RFU 11762660_at / Fold change /veh 11762660_at / RFU VCAN (11757783_s_at) / Fold change /veh VCAN (11757783_s_at) / RFU DDX43 (11728927_at) / Fold change /veh DDX43 (11728927_at) / RFU KRT8 (11758188_x_at) / Fold change /veh KRT8 (11758188_x_at) / RFU NKD1 (11759106_at) / Fold change /veh NKD1 (11759106_at) / RFU SRD5A1 (11742802_a_at) / Fold change /veh SRD5A1 (11742802_a_at) / RFU TPSAB1 /// TPSB2 (11721975_s_at) / Fold change /veh TPSAB1 /// TPSB2 (11721975_s_at) / RFU GSTM3 (11746129_a_at) / Fold change /veh GSTM3 (11746129_a_at) / RFU IL23R (11737362_x_at) / Fold change /veh IL23R (11737362_x_at) / RFU TMEM51 (11727254_a_at) / Fold change /veh TMEM51 (11727254_a_at) / RFU PIWIL2 (11732686_x_at) / Fold change /veh PIWIL2 (11732686_x_at) / RFU ORM1 (11744905_x_at) / Fold change /veh ORM1 (11744905_x_at) / RFU CCDC152 (11743942_at) / Fold change /veh CCDC152 (11743942_at) / RFU ECM1 (11717891_a_at) / Fold change /veh ECM1 (11717891_a_at) / RFU IL23R (11748794_a_at) / Fold change /veh IL23R (11748794_a_at) / RFU TNFAIP8L3 (11732012_x_at) / Fold change /veh TNFAIP8L3 (11732012_x_at) / RFU MBOAT4 (11741988_at) / Fold change /veh MBOAT4 (11741988_at) / RFU 11764193_at / Fold change /veh 11764193_at / RFU TMEM53 (11763286_at) / Fold change /veh TMEM53 (11763286_at) / RFU MAGEB2 (11727129_at) / Fold change /veh MAGEB2 (11727129_at) / RFU TMEM200A (11744735_a_at) / Fold change /veh TMEM200A (11744735_a_at) / RFU CCDC152 (11751479_a_at) / Fold change /veh CCDC152 (11751479_a_at) / RFU FAM211A (11726209_a_at) / Fold change /veh FAM211A (11726209_a_at) / RFU RGS16 (11746705_a_at) / Fold change /veh RGS16 (11746705_a_at) / RFU VCAN (11755009_s_at) / Fold change /veh VCAN (11755009_s_at) / RFU RHOB (11743442_s_at) / Fold change /veh RHOB (11743442_s_at) / RFU RGS16 (11720943_a_at) / Fold change /veh RGS16 (11720943_a_at) / RFU RGS16 (11720944_at) / Fold change /veh RGS16 (11720944_at) / RFU, VPS4B / Fold change vs veh, VPS4B / RFU, CREB1 / Fold change vs veh, CREB1 / RFU, DNAJC13 / Fold change vs veh, DNAJC13 / RFU, GNAQ / Fold change vs veh, GNAQ / RFU, CDK5R1 / Fold change vs veh, CDK5R1 / RFU, ZRANB3 / Fold change vs veh, ZRANB3 / RFU, CUL4A / Fold change vs veh, CUL4A / RFU, CCNY / Fold change vs veh, CCNY / RFU, UFL1 / Fold change vs veh, UFL1 / RFU, COG3 / Fold change vs veh, COG3 / RFU, DIAPH2 / Fold change vs veh, DIAPH2 / RFU, SKA2 / Fold change vs veh, SKA2 / RFU, AFF3 / Fold change vs veh, AFF3 / RFU, LMF1 / Fold change vs veh, LMF1 / RFU, IPO11 / Fold change vs veh, IPO11 / RFU, DFFB / Fold change vs veh, DFFB / RFU, FOXP1 / Fold change vs veh, FOXP1 / RFU, CARD8 / Fold change vs veh, CARD8 / RFU, STRN3 / Fold change vs veh, STRN3 / RFU, ADK / Fold change vs veh, ADK / RFU, RASSF2 / Fold change vs veh, RASSF2 / RFU, WIPF1 / Fold change vs veh, WIPF1 / RFU, LARP1B / Fold change vs veh, LARP1B / RFU, RASA1 / Fold change vs veh, RASA1 / RFU, RB1 / Fold change vs veh, RB1 / RFU, PPFIA1 / Fold change vs veh, PPFIA1 / RFU, MAT2A / Fold change vs veh, MAT2A / RFU, CCT5 / Fold change vs veh, CCT5 / RFU, WDR92 / Fold change vs veh, WDR92 / RFU, CUX1 / Fold change vs veh, CUX1 / RFU, TTC7A / Fold change vs veh, TTC7A / RFU, TMEM135 / Fold change vs veh, TMEM135 / RFU, DEPTOR / Fold change vs veh, DEPTOR / RFU, CPM / Fold change vs veh, CPM / RFU, DNAJB6 / Fold change vs veh, DNAJB6 / RFU, CACNA2D3 / Fold change vs veh, CACNA2D3 / RFU, DTX4 / Fold change vs veh, DTX4 / RFU, TFCP2 / Fold change vs veh, TFCP2 / RFU, GMCL1 /// GMCL1P1 / Fold change vs veh, GMCL1 /// GMCL1P1 / RFU, AEBP2 / Fold change vs veh, AEBP2 / RFU, SNHG1 /// SNORD22 /// SNORD25 /// SNORD26 /// SNORD27 /// SNORD28 /// SNORD29 /// SNORD31 / Fold change vs veh, SNHG1 /// SNORD22 /// SNORD25 /// SNORD26 /// SNORD27 /// SNORD28 /// SNORD29 /// SNORD31 / Fold change (Aza/veh), C12orf56 (ProbeSet 11735607_a_at) / Fold change (ACY-1035/veh), C12orf56 (ProbeSet 11735607_a_at) / Fold change (Aza/veh), FGFR1OP (ProbeSet 11751329_s_at) / Fold change (ACY-1035/veh), FGFR1OP (ProbeSet 11751329_s_at) / Fold change (Aza/veh), VPS36 (ProbeSet 11739960_a_at) / Fold change (ACY-1035/veh), VPS36 (ProbeSet 11739960_a_at) / RFU SYPL1 (11715823_x_at) / Fold change /veh SYPL1 (11715823_x_at) / RFU IGFBP7 (11715501_s_at) / Fold change /veh IGFBP7 (11715501_s_at) / RFU REEP3 (11722064_at) / Fold change /veh REEP3 (11722064_at) / RFU IGLL1 (11728026_x_at) / Fold change /veh IGLL1 (11728026_x_at): dose or concentration left out as unconfirmed
Conditions: MV-4-11 cells, 48 hours

For `Nc1ccc(-c2cccs2)cc1NC(=O)c1ccc2c(c1)cc(C1CC1)n2CCN1CCOCC1` [ACY-1035], the “Fold change /veh HLA-DPB1 (11760878_x_at)” value was 1.16.
